According to the NIST ThermoML archive (doi:10.1021/je400207t):
Values joined by “and” are separate entries in the source; they are usually repeats but may differ in a detail not shown here. Equal values may be shown once. Numbers after ± are expanded uncertainties.

Tests used:
[1] = Molar enthalpy of transition or fusion; conditions: DSC
[2] = for vapor or sublimation pressure: Calculated from knudsen effusion weight loss

O[C@@H]1[C@@H](O)[C@@H]2OC[C@@H](O2)[C@H]1O [1,6-anhydro-β-D-glucopyranose]
Conditions | Molar enthalpy of transition or fusion, Crystal 1 [kcal/mol] | Molar enthalpy of transition or fusion, Crystal 2 [kcal/mol] | Normal melting temperature, Crystal 1, DTA [°C] | Triple point temperature, Crystal 2, DTA [K]
[1] | 0.789 ± 0.0956 | 5.54 ± 0.215 | – | –
[2] | – | – | 182.2 ± 0.4 | 384.9 ± 0.7

[2], Crystal 2
Conditions | vapor or sublimation pressure
361.13 K | 5.35e-05 ± 1e-05 kPa and 6.29e-05 ± 1e-05 kPa and 5.88e-05 ± 1e-05 kPa
363.14 K | 7.32e-05 ± 1e-05 kPa and 7.78e-05 ± 1e-05 kPa
365.22 K | 0.000102 ± 1.1e-05 kPa and 0.000101 ± 1.1e-05 kPa and 9.67e-05 ± 1.1e-05 kPa
367.16 K | 0.00012 ± 1.1e-05 kPa and 0.000119 ± 1.1e-05 kPa and 0.000113 ± 1.1e-05 kPa
369.14 K | 0.000164 ± 1.2e-05 kPa and 0.000144 ± 1.1e-05 kPa and 0.000152 ± 1.1e-05 kPa
371.15 K | 0.000183 ± 1.2e-05 kPa and 0.000192 ± 1.2e-05 kPa
373.15 K | 0.000247 ± 1.3e-05 kPa and 0.000231 ± 1.3e-05 kPa
375.13 K | 0.000317 ± 1.5e-05 kPa and 0.00028 ± 1.4e-05 kPa and 0.000289 ± 1.4e-05 kPa
377.22 K | 0.000407 ± 1.8e-05 kPa and 0.000368 ± 1.6e-05 kPa and 0.000396 ± 1.7e-05 kPa
379.15 K | 0.000476 ± 2e-05 kPa and 0.000472 ± 1.9e-05 kPa and 0.000458 ± 1.9e-05 kPa
